{
  "source": "ChEMBL document CHEMBL1201862",
  "about": "“PubChem BioAssay data set” (2004)",
  "key": {"[1]": {"target": "Endoplasmic reticulum aminopeptidase 1 (Homo sapiens, UniProt Q9NZ08)", "sequence (Q9NZ08 whole entry)": "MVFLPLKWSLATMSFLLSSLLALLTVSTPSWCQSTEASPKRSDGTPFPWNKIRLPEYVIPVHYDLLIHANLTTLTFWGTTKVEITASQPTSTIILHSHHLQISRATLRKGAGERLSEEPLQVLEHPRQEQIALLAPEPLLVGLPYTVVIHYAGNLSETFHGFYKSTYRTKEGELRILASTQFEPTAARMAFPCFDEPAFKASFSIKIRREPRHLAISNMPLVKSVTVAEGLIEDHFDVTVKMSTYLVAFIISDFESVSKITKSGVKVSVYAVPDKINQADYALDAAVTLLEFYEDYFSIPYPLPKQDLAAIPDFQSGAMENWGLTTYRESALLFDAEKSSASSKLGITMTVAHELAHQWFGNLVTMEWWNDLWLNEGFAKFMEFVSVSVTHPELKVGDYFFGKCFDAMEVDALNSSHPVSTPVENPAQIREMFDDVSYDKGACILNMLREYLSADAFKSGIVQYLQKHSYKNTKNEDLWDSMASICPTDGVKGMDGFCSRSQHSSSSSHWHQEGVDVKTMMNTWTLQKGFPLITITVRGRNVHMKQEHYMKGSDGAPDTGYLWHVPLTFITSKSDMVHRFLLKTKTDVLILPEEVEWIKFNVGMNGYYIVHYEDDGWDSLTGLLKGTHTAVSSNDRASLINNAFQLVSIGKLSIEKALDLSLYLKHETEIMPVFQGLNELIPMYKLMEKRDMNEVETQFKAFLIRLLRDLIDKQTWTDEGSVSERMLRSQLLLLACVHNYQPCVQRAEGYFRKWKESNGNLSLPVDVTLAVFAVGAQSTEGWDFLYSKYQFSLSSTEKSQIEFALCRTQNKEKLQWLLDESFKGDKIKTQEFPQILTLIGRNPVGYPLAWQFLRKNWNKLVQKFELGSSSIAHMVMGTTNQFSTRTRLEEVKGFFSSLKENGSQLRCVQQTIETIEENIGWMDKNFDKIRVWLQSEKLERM", "test": "ERAP1 aminopeptidase inhibitors, dose response, biochemical, cherry-pick, set 2, plate reader (AID 743314)"}, "[2]": {"test": "cells", "conditions": "HEK293"}, "[3]": {"test": "cells"}, "[4]": {"test": "cells", "conditions": "A549"}, "[5]": {"test": "inhibitors of intracellular T. cruzi replication, confirmation, NIH3T3 host cells, beta-gal luminescence (AID 2044);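 further: luminescent beta-galactosidase reporter signal from transgenic T. cruzi replicating inside host cells; inhibitors lower the luminescence signal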", "type": "functional, cell-based"}, "[6]": {"test_system": "Streptococcus", "test": "Group A Streptococcus viability loss, dose response, counter-screen for streptokinase expression inhibitor project, luminescence, BacTiterGlo (AID 1915);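 further: potency for reduction of bacterial viability or growth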", "type": "functional, organism-based"}, "[7]": {"test": "C. albicans growth with fluconazole, confirmation, fluorescence, retest (AID 2467)", "type": "functional, cell-based"}, "[8]": {"test_system": "Streptococcus sp. 'group A'", "test": "growth inhibition of control SK(-) GAS strain, dose response, counter-screen for streptokinase expression inhibitor project, luminescence, kanamycin, BacTiterGlo, confirmation (AID 1900)", "type": "functional, organism-based"}, "[9]": {"test": "NIH-3T3 fibroblast cytotoxicity, dose response, cytotoxicity control, cell-based, fluorescence, Alamar Blue, secondary assay (AID 2327);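 further: NIH-3T3 mouse fibroblasts cultured with fluconazole at 8 µg/mL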", "type": "functional"}, "[10]": {"test_system": "Vero", "test": "cells", "type": "functional", "conditions": "Chlorocebus sabaeus"}, "[11]": {"test": "human group III sPLA2 inhibitors, dose response, biochemical, QFRET, IC50 (AID 743457);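 further: green fluorescence rise as the enzyme cleaves BODIPY PC-A2 in liposomes; potency for inhibition of the enzyme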"}, "[12]": {"test": "control 3'UTR Renilla luciferase suppression, dose response, counter-screen for Shn3 inhibitor project, cell-based, Clone20-Shn3RL, cherry-picked (AID 624133)", "type": "functional"}, "[13]": {"test": "Shn3 3'UTR reporter inhibitors, dose response, cell-based, Clone20 osteoblasts, firefly luciferase, cherry-picked (AID 624132)", "type": "functional"}, "[14]": {"test_system": "HEK293", "test": "inhibitors of LMP1-driven NF-kB reporter, dose response, cell-based, HEK293, luciferase, cherry-pick (AID 588343)", "type": "functional", "conditions": "Homo sapiens"}, "[15]": {"test": "cytotoxicity toward NIH3T3 fibroblasts, dose response, counter-screen, cell-based, ATP luminescence, mouse fibroblasts (AID 2010);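 further: cells exposed to compound for about 90 hours before reading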", "type": "functional"}, "[16]": {"test": "HEK293T cytotoxicity, dose response, cytotoxicity control for miR-122 modulator project, cell-based, activator set, cherry-pick (AID 720690);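 further: HEK293T human cells scored for general mammalian cytotoxicity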", "type": "functional"}, "[17]": {"test_system": "INS1", "test": "beta cell apoptosis inhibitors, cytokine rescue, dose response, luminescence, retest (AID 449756);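 further: cell death triggered by IL-1 beta plus TNF-alpha plus IFN-gamma mixture; protective hits raise ATP signal compared with cytokine alone wells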", "type": "functional, cell-based", "conditions": "Rattus norvegicus"}, "[18]": {"test": "HepG2 cell cytotoxicity, dose response, cytotoxicity control for Shn3 inhibitor project, CellTiter-Glo, cherry-picked (AID 624134)", "type": "functional, cell-based"}, "[19]": {"test": "HEK293T cytotoxicity, dose response, cytotoxicity control for miR-122 modulator project, cell-based, inhibitor set, cherry-pick, set 2 (AID 720697)", "type": "functional"}, "[20]": {"test": "inhibitors of control Renilla luciferase reporter, dose response, counter-screen for Shn3 3'UTR targeting project, Clone20-Shn3RL cells, dual-Glo, cherry-pick, set 2 (AID 720724)", "type": "functional, cell-based", "conditions": "Dual-Go Shn3RL"}, "[21]": {"test": "reduction of Shn3 3'UTR firefly luciferase signal, dose response, Schnurri-3 inhibitor project, cell-based, Clone20 osteoblasts, cherry-pick, set 2 (AID 720490);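 further: actives lower the luminescence signal as inhibitors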", "type": "functional"}, "[22]": {"test": "off-target signal loss in HeLa-CEM21 co-culture – HeLa F-luc CTL cells, cherry-picked, counter-screen for HIV-1 Env fusion inhibitor project, dose response (AID 652040);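 further: potency for signal decrease marking cytotoxic or nonspecific inhibition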", "type": "functional, cell-based"}, "[23]": {"test": "inhibitors of clade B AD8 Env fusion, dose response, cell-based, cherry-pick (AID 652062);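 further: potency is for inhibitors of fusion seen as a drop in luminescence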", "type": "functional"}, "[24]": {"test": "MC4R antagonists, dose response, counter-screen for LGR2 antagonist project, cell-based, plate reader, cherry pick (AID 743444);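 further: transfected HEK 293 cells stimulated with alpha-MSH peptide; potency of inhibitors of the alpha-MSH evoked signal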", "type": "functional"}, "[25]": {"test": "HepG2 cell cytotoxicity, dose response, cytotoxicity control, plate reader, cherry-pick, antagonist series (AID 743416)", "type": "functional, cell-based"}, "[26]": {"test": "inhibitors of HIV Env-driven cell fusion, dose response, cherry-pick (AID 652057)", "type": "functional, cell-based"}, "[27]": {"test": "CEM21 lymphoblast cell cytotoxicity, dose response, cytotoxicity control for viral fusion inhibitor project, CellTiter-Glo luminescence, cherry-picked (AID 652042);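 further: potency for signal decrease meaning cytotoxicity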", "type": "functional, cell-based"}, "[28]": {"test": "HEK293 cell cytotoxicity, dose response, cytotoxicity control, plate reader, cherry-picked samples (AID 743446)", "type": "functional, cell-based"}, "[29]": {"test": "A549 cell cytotoxicity, dose response, cytotoxicity control, plate reader, cherry-pick, antagonist series (AID 743412)", "type": "functional, cell-based"}, "[30]": {"test": "LGR2 antagonists, dose response, cell-based, HEK293, CRE-luciferase reporter, cherry pick, set 2 (AID 743343);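 further: transfected cells were stimulated with diluted bursicon conditioned medium after compound addition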", "type": "functional"}, "[31]": {"test": "ZM109 Env clade C HIV-1 fusion inhibitors, dose response, HeLa effector, CEM target cells, luciferase, cherry-pick (AID 652058)", "type": "functional, cell-based"}, "[32]": {"test_system": "Cryptococcus neoformans", "test": "PubChem AID 686997", "type": "functional, organism-based"}, "[33]": {"test_system": "Cryptococcus neoformans", "test": "Cryptococcus growth inhibition by alamar blue – cell lysis, cherry-picks, replicate tests, mechanism study for C. neoformans antifungal project, dose response (AID 686999)", "type": "functional, organism-based"}},
  "note": "Active and inactive are the calls of the source.",
  "data": [
    {"smiles": "Cc1c(C)c2ccc(O)c(CN3CCN(C)CC3)c2oc1=O", "values": [
      {"measurement": "AC50", "setting": "[1]", "result": "10.8 µM (active)"}
    ]},
    {"smiles": "COCCn1c(=N)c(S(=O)(=O)c2ccc(F)cc2)cc2c(=O)n3ccccc3nc21", "values": [
      {"measurement": "AC50", "setting": "[2]", "result": "> 52 µM (inactive)"},
      {"measurement": "AC50", "setting": "[3]", "result": "1.5 µM (active)"}
    ]},
    {"smiles": "CCN(CC)c1ccc2c(C)c(Cl)c(=O)oc2c1", "values": [
      {"measurement": "AC50", "setting": "[4]", "result": "> 52 µM (inactive)"}
    ]},
    {"smiles": "Cc1cc(C(=O)Nc2nc(-c3ccccn3)cs2)ccc1[N+](=O)[O-]", "values": [
      {"measurement": "EC50", "setting": "[5]", "result": "1.11 µM (active)"},
      {"measurement": "EC50", "setting": "[6]", "result": "7.36 µM (active)"},
      {"measurement": "EC50", "setting": "[7]", "result": "1.25 µM (active)"},
      {"measurement": "EC50", "setting": "[8]", "result": "0.471 µM (active)"},
      {"measurement": "EC50", "setting": "[9]", "result": "> 150 µM (inactive)"},
      {"measurement": "CC50", "setting": "[10]", "result": "> 25 µM (active)"},
      {"measurement": "IC50", "setting": "[11]", "result": "> 122 µM (inactive)"}
    ]},
    {"smiles": "COc1ccc(C(NC(C)=O)c2cc(Cl)c3cccnc3c2O)cc1", "note": "(centres undefined)", "values": [
      {"measurement": "EC50", "setting": "[5]", "result": "1.47 µM (active)"},
      {"measurement": "AC50", "setting": "[12]", "result": "1.66 µM (active)"},
      {"measurement": "AC50", "setting": "[13]", "result": "1.61 µM (active)"},
      {"measurement": "AC50", "setting": "[14]", "result": "4.38 µM (active)"},
      {"measurement": "EC50", "setting": "[15]", "result": "4.23 µM (active)"},
      {"measurement": "AC50", "setting": "[16]", "result": "12.1 µM (active)"},
      {"measurement": "AC50", "setting": "[17]", "result": "1.95 µM (active)"},
      {"measurement": "AC50", "setting": "[18]", "result": "3.17 µM (active)"},
      {"measurement": "AC50", "setting": "[19]", "result": "2.06 µM (active)"}
    ]},
    {"smiles": "CC1CCCC(NC(=O)c2cccc(S(=O)(=O)N3CCN(c4ccccc4)CC3)c2)C1C", "note": "(centres undefined)", "values": [
      {"measurement": "AC50", "setting": "[20]", "result": "25.2 µM (active)"},
      {"measurement": "AC50", "setting": "[12]", "result": "> 70 µM (inactive)"},
      {"measurement": "AC50", "setting": "[13]", "result": "3.14 µM (active)"},
      {"measurement": "AC50", "setting": "[18]", "result": "> 70 µM (inactive)"},
      {"measurement": "AC50", "setting": "[21]", "result": "4.29 µM (active)"}
    ]},
    {"smiles": "Cc1nc(N/N=C/c2ccccn2)sc1C", "values": [
      {"measurement": "AC50", "setting": "[22]", "result": "13.5 µM (active)"},
      {"measurement": "AC50", "setting": "[23]", "result": "6.45 µM (active)"},
      {"measurement": "AC50", "setting": "[24]", "result": "0.949 µM (active)"},
      {"measurement": "AC50", "setting": "[25]", "result": "2.7 µM (active)"},
      {"measurement": "AC50", "setting": "[26]", "result": "3.74 µM (active)"},
      {"measurement": "AC50", "setting": "[27]", "result": "6.02 µM (active)"},
      {"measurement": "AC50", "setting": "[28]", "result": "7.53 µM (active)"},
      {"measurement": "AC50", "setting": "[29]", "result": "5.22 µM (active)"},
      {"measurement": "AC50", "setting": "[17]", "result": "3.83 µM (active)"},
      {"measurement": "AC50", "setting": "[30]", "result": "0.573 µM (active)"},
      {"measurement": "AC50", "setting": "[31]", "result": "18.8 µM (active)"}
    ]},
    {"smiles": "COC(=O)C1=C(C)N(Cc2ccc(Cl)cc2)C(=S)NC1c1ccc(F)cc1", "note": "(centres undefined)", "values": [
      {"measurement": "AC50", "setting": "[32]", "result": "35.4 µM (active)"},
      {"measurement": "AC50", "setting": "[32]; Cryptococcus neoformans", "result": "23.6 µM (active)"},
      {"measurement": "AC50", "setting": "[33]", "result": "43 µM (active)"}
    ]}
  ]
}
